Measured values as given in US12036228B2, “Treatment of seizure disorders” (Shackelford Pharma Inc., priority 2022, dated 2024).
Values joined by “and” are separate entries in the source; they are usually repeats but may differ in a detail not shown here. Equal values may be shown once. Read-outs that look alike come from different tables or passages of the source.

Assays:
[1] = tested on: GTC seizures in human patient; test: Example 2 human patient, Dravet syndrome; type: in vivo
Method: A patient first started having seizures and was subsequently diagnosed with Dravet syndrome. Initially, they were having clusters of 2 GTC seizures a day for 2 days occurring about every 2 weeks. Keppra was ineffective as were other combinations of anti-epileptic drugs. Several different combinations were tried and by the time they were first seen for evaluation for cannabinoid treatment on Aug. 7, 2014, they were taking Depakote 125 mg BID, Clonazepam 0.5 mg TID, and Versed/Diastat as needed for rescue but was still having clusters of GTC seizures every 2 weeks. The patient had started a CBD product on Jul. 3, 2014 (product analysis: 11.2 mg CBD/gm with 0.38 mg THC/gm at a dose of 0.7 mL TID (unknown concentration per mL), but seizures still were occurring irregularly—primarily GTC occurring in clusters of 1-2 per day every two weeks, rare atonic, and occasional eye-flutters.

[2] = tested on: GTC seizures in human patient; test: Example 7 human patient, intractable GTC seizures; type: in vivo
Excerpt: A patient was first diagnosed with intractable GTC seizures without status epilepticus in 2001.
The patient first presented for cannabinoid treatment on May 24, 2013. They were then a PhD student in economics. The patient's medical history is significant for having a car accident with a concussion and “scarring”. They developed GTC seizures occurring 3 times per month. […] In 2008, they started using recreational cannabis occasionally, but not regularly.

[3] = tested on: seizures in human patient; test: Example 3 human patient, GTC and complex partial seizures; type: in vivo; details: including ataxia; discontinued after 6 months
Excerpt: A patient first started having GTC and complex partial (CP) seizures. […] The patient was referred for evaluation for initiation of cannabinoid/THC treatment in March 2014.

[4] = tested on: male CD-1 mice, 6 Hz (22 mA) corneal stimulus psychomotor seizure; test: Mouse 6 Hz seizure (22 mA) test; type: in vivo; details: for % Seizure, group / % Seizure / F. Clonus / Lat H. Movement / Straub T. / Stun / Total (seizure score) / Total (seizure score), group mean / ED50: 30 min before test; for % Seizure: individual animals (0/1); for F. Clonus / Lat H. Movement / Straub T. / Stun / Total (seizure score): individual animals; for ED50: Mus musculus, IP
Method: This study assessed the anti-epileptic effects of low doses of dronabinol in the mouse 6 Hz seizure (22 mA) test at 4 dose levels. Sixty male CD-1 mice were randomly allocated to 1 of 7 treatment groups outlined in Table 1 below. The mice were purchased from Charles River Laboratories (St. Constant, Quebec, Canada). On the day of the experiment, general health observations and body weight measurements were performed prior to dosing. Thirty (30) minutes after administration of assigned treatments in Table 1, animals underwent a neurological assessment followed immediately by 6 Hz testing. Descriptions of these procedures are provided below.
Dronabinol and sodium valproate were dissolved in their respective vehicles on the day of dosing. Treatments were intraperitoneally administered to the lower right quadrant of the abdomen according to standard operating procedures. Treatment group summaries are included in Table 1.
On the scheduled test day, subjects received a dose of their assigned treatment 30 minutes before the electrical stimulus. Following neurological assessments, animals then received an electrical stimulus (6 Hz, 0.2 millisecond pulse width, 3 second duration, 22 mA) via corneal electrodes moistened with saline (ECT unit 57800; Ugo Basile). In approximately 50% of control animals, these stimulus parameters should elicit a psychomotor seizure within 30 seconds of stimulus delivery, defined as the expression of at least one of the following behaviours: stun/immobility, forelimb clonus, straub tail, or lateral head movement. Protection was defined as complete absence of the following: stun/immobility, forelimb clonus, straub tail and/or lateral head movement, within 30 seconds of stimulus delivery. A seizure score was assigned to each animal based on the number of these behaviours expressed by the animal after stimulus application. Once the animal either entered into a seizure, or 30 seconds elapsed, the endpoint was reached, and the animal was immediately euthanized.
All statistical analyses were performed using GraphPad Prism v.7.03. Analysis of variance (ANOVA) was completed for total seizure score data with the independent grouping variable of treatment (i.e., test article dose and control). In the event of a significant main effect, post-hoc Fisher's least significant difference analysis was conducted to compare vehicle with drug treatment.

male CD-1 mice = test: Neurological assessment (score 0-3) immediately prior to seizure test; type: in vivo, mouse; design: key to Neurological Score: 0: Normal; 1: Modest decrease in spontaneous activity; 2: Marked decrease in spontaneous activity; 3: Loss of righting reflex; details: for Neurological Score: 30 min after dosing, individual animals
Method: Immediately prior to each seizure test, a brief neurological assessment was performed.

## CC[C@@H](C(N)=O)N1CCCC1=O [Keppra, levetiracetam]
[1]; Dravet patient, initial treatment
  effect on seizures: ineffective

## NC(=O)N1c2ccccc2C=Cc2ccccc21 [Tegretol]
[2]; Tegretol (dose unknown)
  side effects: concerning side effects

## CCCC(CCC)C(=O)O [Depakote]
[3]
  side effects: debilitating side effects

## CCCCCc1cc(O)c2c(c1)OC(C)(C)[C@@H]1CCC(C)=C[C@@H]21 [Dronabinol]
[4]; 0.002 mg/kg IP, N = 8
  % Seizure, group: 62.5%
  % Seizure: 1 (5×) and 0 (3×)
  F. Clonus: 1 (4×) and 0 (4×)
  Lat H. Movement: 1 (3×) and 0 (5×)
  Straub T.: 0 (7×) and 1
  Stun: 1 (4×) and 0 (4×)
  Total (seizure score): 3 (2×) and 2 (3×) and 0 (3×)
  Total (seizure score), group mean: 1.5
[4]; 0.02 mg/kg IP, N = 8
  % Seizure, group: 50.0%
  % Seizure: 0 (4×) and 1 (4×)
  F. Clonus: 0 (7×) and 1
  Lat H. Movement: 0 (5×) and 1 (3×)
  Straub T.: 0 (7×) and 1
  Stun: 0 (5×) and 1 (3×)
  Total (seizure score): 0 (4×) and 2 (2×) and 1 and 3
  Total (seizure score), group mean: 1.0
[4]; 0.2 mg/kg IP, N = 8
  % Seizure, group: 50.0%
  % Seizure: 0 (4×) and 1 (4×)
  F. Clonus: 0 (6×) and 1 (2×)
  Lat H. Movement: 0 (7×) and 1
  Straub T.: 0 (5×) and 1 (3×)
  Stun: 0 (4×) and 1 (4×)
  Total (seizure score): 0 (4×) and 3 (2×) and 2 (2×)
  Total (seizure score), group mean: 1.3
[4]; 2 mg/kg IP, N = 11
  % Seizure, group: 54.5%
  % Seizure: 1 (6×) and 0 (5×)
  F. Clonus: 1 (5×) and 0 (6×)
  Lat H. Movement: 0 (8×) and 1 (3×)
  Straub T.: 0 (10×) and 1
  Stun: 0 (8×) and 1 (3×)
  Total (seizure score): 1 (2×) and 0 (5×) and 2 (3×) and 4
  Total (seizure score), group mean: 1.0
[4]; 4 mg/kg IP
  seizure incidence in the 6 HZ seizure test: Decreased seizure incidence
[4]; 4 mg/kg IP, N = 9
  % Seizure, group: 33.3%
  % Seizure: 0 (6×) and 1 (3×)
  F. Clonus: 0
  Lat H. Movement: 0
  Straub T.: 0 (8×) and 1
  Stun: 0 (6×) and 1 (3×)
  Total (seizure score): 0 (6×) and 1 (2×) and 2
  Total (seizure score), group mean: 0.4
[4]; 0.02, 2, and 4 mg/kg doses IP, p<0.05
  seizure scores (mean±SEM) vs vehicle, post-hoc analysis: reduction in seizure scores
[4]; 0.002 to 4 mg/kg doses, 95% confidence limits 1.36-11.82 mg/kg, read-out: ED50, decrease in percentage incidence of seizures
  ED50: 4.01 mg/kg
[4]; 95% CI (0.01-1.05), read-out: ED50, decrease in the seizure score
  ED50: 0.1 mg/kg
Male CD-1 mice; 0.002 mg/kg IP, N = 8
  Neurological Score: 0
  Neurological Score, group mean: 0.0
Male CD-1 mice; 0.02 mg/kg IP, N = 8
  Neurological Score: 0
  Neurological Score, group mean: 0.0
Male CD-1 mice; 0.2 mg/kg IP, N = 8
  Neurological Score: 0
  Neurological Score, group mean: 0.0
Male CD-1 mice; 0.002-4 mg/kg IP
  effect on behaviour as measured by neurological scoring: no measurable effect on behaviour
Male CD-1 mice; 2 mg/kg IP, N = 11
  Neurological Score: 0
  Neurological Score, group mean: 0.0
Male CD-1 mice; 4 mg/kg IP, N = 9
  Neurological Score: 0
  Neurological Score, group mean: 0.0

## NC(=O)N1c2ccccc2CC(=O)c2ccccc21 [Trileptal]
[2]; Trileptal
  side effects: concerning side effects

## CCCC(CCC)C(=O)[O-].[Na+] [Sodium Valproate, Sodium valproate]
[4]; 600 mg/kg IP, N = 4
  % Seizure, group: 0.0%
  % Seizure: 0
  F. Clonus: 0
  Lat H. Movement: 0
  Straub T.: 0
  Stun: 0
  Total (seizure score): 0
  Total (seizure score), group mean: 0.0
[4]; p<0.01
  seizure scores (mean±SEM) vs vehicle, post-hoc analysis: reduction in seizure scores
Male CD-1 mice; 600 mg/kg IP
  motor impairment (neurological assessment): noticeable motor impairment on all animals
Male CD-1 mice; 600 mg/kg IP, N = 4
  Neurological Score: 2
  Neurological Score, group mean: 2.0

## CC(C)(C)C(O)/C=C/c1ccc2c(c1)OCO2 (stereo not drawn) [stiripentol]
[1]; stiripentol added to Depakote and Onfi (and THC 5 mg HS)
  myoclonic seizures: resolution of myoclonic seizures
